Article PMC6943527, “Are the Hydantoin-1,3,5-triazine 5-HT6R Ligands a Hope to a Find New Procognitive and Anti-Obesity Drug? Considerations Based on Primary In Vivo Assays and ADME-Tox Profile In Vitro” (Molecules, 2019)
Values belong to the compound of their own block, whether it stands above or below them.

Experiments:
[1] = Hepatotoxicity assay, HepG2 cell viability; format: cell-based; conditions: human, HepG2 hepatoma cells, 100 µM, read-out: HepG2 cell viability, % of the control
Experimental: The cell-based assays were used to investigate safety of the 5-HT6R ligands. […] During the same study, no effect for KMP-10 was observed. Additional safety tests with the hepatoma HepG2 cell line were performed here to estimate the compounds’ hepatotoxicity. A slight antiproliferative effect was observed only for DJ-18 at 100 µM, where the cell viability was decreased to up to ~83% of the control (Figure 9a).
Hepatotoxicity was estimated using the hepatoma HepG2 (ATCC® HB-8065^TM) cell line according to previously described protocols. The CellTiter 96® AQueous Non-Radioactive Cell Proliferation Assay was obtained from Promega (Madison, WI, USA). The compounds were investigated in quadruplicate at four concentrations (0.1–100 µM) for 72h. The antiproliferative drug DX was used as a positive control at a dose of 1 µM.

5-HT6 = target: 5-HT6; parameters: method as in PMID 30282913; conditions: radioligand binding, average of at least two independent experiments; read-out: Ki 5-HT6 [3H]-LSD; cited from earlier work
D2 = target: D2; parameters: method as in PMID 30282913; conditions: radioligand binding, average of at least two independent experiments; read-out: Ki D2 [3H]-Raclopride; cited from earlier work
5-HT1A = target: 5-HT1A; parameters: method as in PMID 30282913; conditions: radioligand binding, average of at least two independent experiments; read-out: Ki 5-HT1A [3H]-8-OH-DPAT; cited from earlier work
5-HT7 = target: 5-HT7; parameters: method as in PMID 30282913; conditions: radioligand binding, average of at least two independent experiments; read-out: Ki 5-HT7 [3H]-5-CT; cited from earlier work
[2] = system: human embryonic kidney (HEK)-293 cells; parameters: method as in PMID 30282913; conditions: highest concentration 100 µM; cited from earlier work
[3] = Parallel artificial membrane permeability assay (PAMPA)
[4] = Metabolic stability and metabolic pathways in human liver microsomes
Experimental: The pharmacokinetic parameters of compounds were estimated by using human liver microsomes (HLMs) (Sigma-Aldrich, St. Louis, MO, USA). The t1/2 values and intrinsic clearances (CLint) were calculated with IS by using the protocols and formulas proposed by Obach [38]. […] VL was used as the reference unstable drug.

[5] = parameters: method as in PMID 29297106; conditions: earlier studies; cited from earlier work
CYP3A4 = target: T1, CYP3A4 (Homo sapiens, UniProt P08684); parameters: method as in PMID 28212021; conditions: cited from earlier work
T1 construct: purchased Promega (Madison, WI, USA)

CYP2D6 = target: T2, CYP2D6 (Homo sapiens, UniProt P10635); parameters: method as in PMID 28212021; conditions: cited from earlier work
T2 construct: purchased Promega (Madison, WI, USA)

[6] = cited from earlier work

T1 sequence (P08684 whole entry): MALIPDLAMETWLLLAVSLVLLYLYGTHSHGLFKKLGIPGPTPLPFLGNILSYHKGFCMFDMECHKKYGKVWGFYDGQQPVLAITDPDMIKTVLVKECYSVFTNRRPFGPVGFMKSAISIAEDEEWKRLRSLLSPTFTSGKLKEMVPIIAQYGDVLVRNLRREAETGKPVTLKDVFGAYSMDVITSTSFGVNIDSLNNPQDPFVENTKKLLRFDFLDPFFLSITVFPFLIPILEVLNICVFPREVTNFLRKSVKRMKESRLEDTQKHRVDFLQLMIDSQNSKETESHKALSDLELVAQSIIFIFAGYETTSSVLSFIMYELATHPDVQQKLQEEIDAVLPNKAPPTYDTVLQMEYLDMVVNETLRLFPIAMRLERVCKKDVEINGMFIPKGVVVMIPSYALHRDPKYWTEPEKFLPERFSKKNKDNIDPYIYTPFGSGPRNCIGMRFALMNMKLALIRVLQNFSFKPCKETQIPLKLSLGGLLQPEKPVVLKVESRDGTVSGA
T2 sequence (P10635 whole entry): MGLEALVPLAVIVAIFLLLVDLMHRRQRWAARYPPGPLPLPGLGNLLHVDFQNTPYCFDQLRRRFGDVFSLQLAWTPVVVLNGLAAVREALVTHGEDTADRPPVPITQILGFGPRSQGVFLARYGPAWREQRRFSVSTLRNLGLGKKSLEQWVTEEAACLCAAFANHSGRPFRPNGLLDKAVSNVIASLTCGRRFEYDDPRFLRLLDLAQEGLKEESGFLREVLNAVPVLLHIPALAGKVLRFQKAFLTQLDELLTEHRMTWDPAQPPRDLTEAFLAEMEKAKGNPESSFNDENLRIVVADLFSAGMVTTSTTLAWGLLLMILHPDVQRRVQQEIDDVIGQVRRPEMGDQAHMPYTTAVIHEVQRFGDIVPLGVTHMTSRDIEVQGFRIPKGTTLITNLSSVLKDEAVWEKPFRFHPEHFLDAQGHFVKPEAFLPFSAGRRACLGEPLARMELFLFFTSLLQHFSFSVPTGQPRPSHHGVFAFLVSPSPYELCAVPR

- Papp at 5 h, 200 µM ([3]; PAMPA, pH 7.4): 24.9 ± 0.45 ×10⁻⁶ cm/s
- PAMPA ability to penetrate the artificial membrane, fold stronger than caffeine ([3]; vs high-permeable reference caffeine): ~ 1.65
- Metabolic Pathway, metabolite M1 ([4]; HLMs, 120 min incubation): demethylation
- Metabolic Pathway, metabolite M2 ([4]; HLMs, 120 min incubation): hydroxylation
- Metabolic Pathway, metabolite M3 ([4]; HLMs, 120 min incubation): demethylation and hydroxylation
- Metabolic Pathway, metabolite M4 ([4]; HLMs, 120 min incubation): hydroxylation
- Intrinsic Clearance CLint ([4]; HLMs, reactions terminated at 5, 15, 30 and 45 min): 4.32 mL/min/kg
- t1/2, fold longer than verapamil ([4]; HLMs, vs unstable reference verapamil): ~ 6 fold
- half-life ([4]; human, liver microsomes, Half-Life t1/2, HLMs, reactions terminated at 5, 15, 30 and 45 min): 3.12 h
SMILES: CN1CCN(c2nc(N)nc(CN3C(=O)N(Cc4ccc(Cl)cc4)C(C)(C)C3=O)n2)CC1 [DJ-18]
- viability at 72 h, 100 µM [1]: ~83%
- Ki (5-HT6): 0.127 µM
- Ki (D2): 4.1 µM
- Ki (5-HT1A): 23.3 µM
- Ki (5-HT7): 3.71 µM
- HEK-293 cells viability [2]: statistically significant slight decrease

SMILES: Fc1ccc2c(CCNCc3cccc(OCC(F)(F)C(F)F)c3)c[nH]c2c1 [Idalopirdine]
- Amount of visceral fat [5]: significantly reduced
- Elevated glucose levels [5]: compensated for elevated glucose levels

- PAMPA Pe ± SD ([3]; 200 µM in PBS pH 7.4, 5 h, room temperature, triplicate): 0.56 ± 0.13 10^−6 cm/s
SMILES: CCn1cc(C(=O)O)c(=O)c2cc(F)c(N3CCNCC3)cc21 [Norfloxacin, norfloxacin, reference compound]

SMILES: COc1ccc2c(c1)c(CN1CCN(C)CC1)cn2S(=O)(=O)c1ccccc1Br.CS(=O)(=O)O.CS(=O)(=O)O.O [SUVN-502, 1-[(2-Bromophenyl)sulfonyl]-5-methoxy-3-[(4-methyl-1-piperazinyl)methyl]-1H-indole Dimesylate Monohydrate]
- CYP3A4 inhibition (CYP3A4): rather strong inhibitor
- CYP2D6 inhibition (CYP2D6): weaker inhibitor
- BBB-penetration ([6]; after oral administration): good BBB (blood brain barrier)-penetration
- t1/2 in vivo ([6]; pharmacokinetics in vivo): 0.95 h
